Test results from ChEMBL document CHEMBL1201862, “PubChem BioAssay data set” (2004).
Activity calls are given as the source filed them.

Tests used:
[1] = toxicity toward HepG2 liver cells – cell-based, plate reader, cherry-pick, antagonist series, cytotoxicity control, dose response (AID 743416); assay type: functional
[2] = blockers of bursicon-stimulated LGR2 cAMP reporter – cell-based, HEK293, CRE-luciferase reporter, cherry pick, set 2, dose response (AID 743343); assay type: functional;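 also: transfected cells were stimulated with diluted bursicon conditioned medium after compound addition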
Estrogen receptor = target: T1, Estrogen receptor (Homo sapiens, UniProt P03372); experiment: ERα coactivator recruitment enhancers – biochemical, TR-FRET, ERα LBD, dose response (AID 737)
T1 sequence (P03372 whole entry): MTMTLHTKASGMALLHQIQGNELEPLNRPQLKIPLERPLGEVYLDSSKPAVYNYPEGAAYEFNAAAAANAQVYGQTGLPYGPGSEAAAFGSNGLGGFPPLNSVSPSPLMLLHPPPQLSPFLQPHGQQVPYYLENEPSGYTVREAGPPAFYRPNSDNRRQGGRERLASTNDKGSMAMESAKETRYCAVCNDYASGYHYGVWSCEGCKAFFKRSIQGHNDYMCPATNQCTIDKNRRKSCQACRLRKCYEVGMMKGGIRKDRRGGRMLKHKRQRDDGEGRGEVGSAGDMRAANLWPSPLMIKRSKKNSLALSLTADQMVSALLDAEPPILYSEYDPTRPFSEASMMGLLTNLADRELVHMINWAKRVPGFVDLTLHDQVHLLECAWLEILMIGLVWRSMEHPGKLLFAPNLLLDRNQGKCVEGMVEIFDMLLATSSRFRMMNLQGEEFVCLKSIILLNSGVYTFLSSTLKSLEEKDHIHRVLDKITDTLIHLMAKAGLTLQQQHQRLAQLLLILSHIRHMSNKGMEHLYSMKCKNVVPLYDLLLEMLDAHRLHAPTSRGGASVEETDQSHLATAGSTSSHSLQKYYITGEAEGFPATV

[3] = viability loss in HEK293 cells – cell-based, plate reader, cherry-picked samples, cytotoxicity control, dose response (AID 743446); assay type: functional
[4] = blockade of melanocortin 4 receptor signaling – cell-based, plate reader, cherry pick, counter-screen for LGR2 antagonist project, dose response (AID 743444); assay type: functional;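 also: transfected HEK 293 cells stimulated with alpha-MSH peptide; potency of inhibitors of the alpha-MSH evoked signal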
[5] = Luminescence Cell-Based Dose Response HTS to Identify Inhibitors of 5'UTR Stem-Loop Driven Prion Protein mRNA Translation in H4 Neuroglioblastoma Cells. [Related pubchem assays: 1827 (Project Summary), 1813 (Primary HTS)]; assay type: functional
Wee1-like protein kinase = Wee1-like protein kinase (Homo sapiens, UniProt P30291); experiment: Dose Response Cell-based Assay for Inhibitors of Wee1 Degradation. [Related pubchem assays: 1410, 1321 ]; assay type: functional
Chain of Wee1-like protein kinase (P30291 whole entry): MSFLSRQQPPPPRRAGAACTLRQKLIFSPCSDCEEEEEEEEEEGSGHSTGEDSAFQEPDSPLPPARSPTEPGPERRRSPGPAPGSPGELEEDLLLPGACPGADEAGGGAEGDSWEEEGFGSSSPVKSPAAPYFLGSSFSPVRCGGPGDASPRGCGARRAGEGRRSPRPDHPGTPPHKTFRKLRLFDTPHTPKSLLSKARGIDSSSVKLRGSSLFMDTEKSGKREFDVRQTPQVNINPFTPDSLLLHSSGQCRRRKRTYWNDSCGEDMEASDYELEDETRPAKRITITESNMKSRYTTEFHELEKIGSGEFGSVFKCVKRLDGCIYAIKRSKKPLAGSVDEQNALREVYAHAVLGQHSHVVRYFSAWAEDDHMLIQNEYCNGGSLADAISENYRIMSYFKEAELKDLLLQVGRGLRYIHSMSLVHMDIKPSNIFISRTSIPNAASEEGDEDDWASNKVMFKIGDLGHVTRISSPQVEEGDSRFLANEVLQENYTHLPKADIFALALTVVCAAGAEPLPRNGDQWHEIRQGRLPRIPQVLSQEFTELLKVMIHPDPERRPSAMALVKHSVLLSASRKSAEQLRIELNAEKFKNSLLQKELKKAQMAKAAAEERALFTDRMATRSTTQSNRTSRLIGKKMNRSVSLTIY

[6] = target: G2/mitotic-specific cyclin-B1 (Homo sapiens, UniProt P14635); experiment: Counterscreen assay for inhibitors of Wee1 degradation: dose response cell-based assay to identify inhibitors of cyclin B degradation. [Related pubchem assays: 1410, 1321 ]; assay type: functional
Chain of G2/mitotic-specific cyclin-B1 (P14635 whole entry): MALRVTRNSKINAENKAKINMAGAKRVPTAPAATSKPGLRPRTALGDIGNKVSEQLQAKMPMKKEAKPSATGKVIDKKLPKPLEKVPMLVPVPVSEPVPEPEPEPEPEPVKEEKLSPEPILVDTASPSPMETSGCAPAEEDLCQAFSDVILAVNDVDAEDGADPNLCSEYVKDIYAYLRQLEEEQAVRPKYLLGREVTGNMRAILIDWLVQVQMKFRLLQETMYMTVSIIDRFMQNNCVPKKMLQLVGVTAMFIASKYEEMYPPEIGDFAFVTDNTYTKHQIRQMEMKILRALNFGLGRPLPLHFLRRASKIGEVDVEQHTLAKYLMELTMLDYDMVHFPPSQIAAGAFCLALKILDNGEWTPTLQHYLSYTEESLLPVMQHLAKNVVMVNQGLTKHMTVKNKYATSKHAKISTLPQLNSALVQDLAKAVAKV

[7] = alpha-synuclein stem-loop luciferase translation blockers – H4 neuroglioma cells, luminescence, confirmation (AID 1988); assay type: functional, cell-based
Phospholipase A2 = Phospholipase A2 (Homo sapiens, UniProt P04054); assay type: functional;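 also: confirmatory dose-response counterscreen on phospholipase A2, testing hits that came from an ultra-high-throughput screen for ATG4B inhibitors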
Chain of Phospholipase A2 (P04054 whole entry): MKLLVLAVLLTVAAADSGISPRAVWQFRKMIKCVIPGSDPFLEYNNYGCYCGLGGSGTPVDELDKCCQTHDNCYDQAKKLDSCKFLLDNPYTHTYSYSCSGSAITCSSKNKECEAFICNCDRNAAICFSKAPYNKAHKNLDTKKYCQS

[8] = luciferase reporter signal suppression in cells – H4 neuroglioma cells, luminescence, dose response (AID 1990); assay type: functional, cell-based
Cysteine protease ATG4B = target: T2, Cysteine protease ATG4B (Homo sapiens, UniProt Q9Y4P1); assay type: functional;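 also: Fluorescence-based dose-response confirmation assay measuring inhibition of ATG4B activity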
T2 sequence (Q9Y4P1 whole entry): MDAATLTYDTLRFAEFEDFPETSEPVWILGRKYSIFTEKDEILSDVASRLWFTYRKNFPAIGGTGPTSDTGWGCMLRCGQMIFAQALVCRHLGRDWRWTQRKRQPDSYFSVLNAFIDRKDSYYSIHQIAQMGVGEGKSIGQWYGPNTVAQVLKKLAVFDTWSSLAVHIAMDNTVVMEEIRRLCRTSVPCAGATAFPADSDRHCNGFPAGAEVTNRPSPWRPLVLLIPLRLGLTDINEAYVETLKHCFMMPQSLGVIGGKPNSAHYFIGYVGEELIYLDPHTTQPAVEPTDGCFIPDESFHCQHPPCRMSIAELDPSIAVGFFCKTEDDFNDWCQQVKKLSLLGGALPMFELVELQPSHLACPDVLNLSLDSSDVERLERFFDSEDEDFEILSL

Cytochrome P450 3A4 = Cytochrome P450 3A4 (Homo sapiens, UniProt P08684); settings: Potency;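 also: confirmatory qHTS run detecting inhibitors and substrates of CYP3A4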
Chain of Cytochrome P450 3A4 (P08684 whole entry): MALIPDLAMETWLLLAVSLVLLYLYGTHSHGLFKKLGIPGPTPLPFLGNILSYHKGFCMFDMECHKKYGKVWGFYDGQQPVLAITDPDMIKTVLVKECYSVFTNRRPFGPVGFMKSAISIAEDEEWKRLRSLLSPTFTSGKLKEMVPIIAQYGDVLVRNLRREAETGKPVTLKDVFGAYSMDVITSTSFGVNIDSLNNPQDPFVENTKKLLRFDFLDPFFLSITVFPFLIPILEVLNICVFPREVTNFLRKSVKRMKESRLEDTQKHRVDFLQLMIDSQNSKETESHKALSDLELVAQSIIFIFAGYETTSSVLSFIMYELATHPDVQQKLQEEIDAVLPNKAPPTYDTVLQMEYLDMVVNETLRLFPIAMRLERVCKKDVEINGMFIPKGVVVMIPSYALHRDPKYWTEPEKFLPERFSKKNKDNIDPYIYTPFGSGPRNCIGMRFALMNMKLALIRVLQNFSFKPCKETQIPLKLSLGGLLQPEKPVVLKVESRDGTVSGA

Procathepsin L = Procathepsin L (Homo sapiens, UniProt P07711)
Chain of Procathepsin L (P07711 whole entry): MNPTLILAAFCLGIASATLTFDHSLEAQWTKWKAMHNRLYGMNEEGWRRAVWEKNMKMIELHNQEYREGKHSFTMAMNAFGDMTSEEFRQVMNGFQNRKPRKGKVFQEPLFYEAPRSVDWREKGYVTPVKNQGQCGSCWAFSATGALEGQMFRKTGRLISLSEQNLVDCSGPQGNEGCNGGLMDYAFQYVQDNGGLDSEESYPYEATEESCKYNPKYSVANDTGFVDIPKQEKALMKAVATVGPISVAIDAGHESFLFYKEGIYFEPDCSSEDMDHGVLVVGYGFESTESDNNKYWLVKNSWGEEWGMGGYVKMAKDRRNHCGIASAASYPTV

Aspartyl aminopeptidase = Aspartyl aminopeptidase (Plasmodium falciparum 3D7, UniProt Q8I2J3)
Chain of Aspartyl aminopeptidase (Q8I2J3 whole entry): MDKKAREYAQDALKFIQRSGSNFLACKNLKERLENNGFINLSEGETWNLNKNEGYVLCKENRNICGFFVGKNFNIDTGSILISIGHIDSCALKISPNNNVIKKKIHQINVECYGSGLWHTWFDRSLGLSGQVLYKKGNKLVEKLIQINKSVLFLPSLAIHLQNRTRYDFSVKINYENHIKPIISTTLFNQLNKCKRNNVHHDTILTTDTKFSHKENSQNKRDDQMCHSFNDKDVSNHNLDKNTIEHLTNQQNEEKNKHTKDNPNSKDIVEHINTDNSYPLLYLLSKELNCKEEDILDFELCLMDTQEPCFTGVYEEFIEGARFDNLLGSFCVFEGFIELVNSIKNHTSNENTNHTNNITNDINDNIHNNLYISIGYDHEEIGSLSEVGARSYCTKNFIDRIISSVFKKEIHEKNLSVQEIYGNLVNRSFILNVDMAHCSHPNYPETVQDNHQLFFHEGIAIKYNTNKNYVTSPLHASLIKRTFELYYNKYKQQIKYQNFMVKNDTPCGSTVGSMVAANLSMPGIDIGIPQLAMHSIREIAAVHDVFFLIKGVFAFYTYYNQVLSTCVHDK

## C1COCCO1.O=C(Nc1nc(-c2ccc(S(=O)(=O)N3CCOCC3)cc2)cs1)c1ccccc1
[1]
  AC50: 36.7 µM (active)
[2]
  AC50: 42 µM (active)
Estrogen receptor
  EC50: 15.1 µM (active)
[3]
  AC50: > 52 µM (inactive)
[4]
  AC50: 44.3 µM (active)

## CCCC1=Nc2cc(C(=O)NCc3ccco3)ccc2Sc2ccccc21
[5]
  EC50: 11.4 µM (active)
Wee1-like protein kinase
  EC50: > 49.7 µM (not active)
[6]
  EC50: > 49.7 µM (not active)
[7]
  EC50: 8.6 µM (active)
Phospholipase A2
  IC50: 6.93 µM (active)
[8]
  EC50: 11.1 µM (inconclusive)
Cysteine protease ATG4B
  IC50: 15.2 µM (active)

## CC1(C)CC(=O)c2c(oc3cc(O)c(O)cc23)C1
Cytochrome P450 3A4
  AC50: 31.6 µM (inconclusive)
Procathepsin L
  IC50: > 59.6 µM (not active)
Aspartyl aminopeptidase
  IC50: 1.25 µM (active)
